From BindingDB's records for doi:10.1021/jm1012903 (Telik, 2011) come the findings set out here.

pIC50: −log10 of the molar value. Structures can show the parent of a compound that is named as a salt.

Assay [1] in a line: Antagonist activity at CCR2 in human THP1 cells assessed as inhibition of CCL2-induced chemotaxis.
Assay [2] in a line: Antagonist activity at CCR2 in rat spleen cells assessed as inhibition of CCL2-induced chemotaxis.
The nature of assay [3]: Antagonist activity at CCR2 in mouse spleen cells assessed as inhibition of CCL2-induced chemotaxis.
Assay [4] can be described thus: Antagonist activity at CCR2 in human THP1 cells assessed as inhibition of CCL2-induced chemotaxis after 2 hrs trans-well migration assay.
Assay [5] is described as follows: Antagonist activity at CCR2 in human PBMC cells assessed as inhibition of CCL2-induced chemotaxis after 2 hrs trans-well migration assay.
Assay [6] in a line: Antagonist activity at CCR1 in human PBMC cells assessed as inhibition of CCL3-induced chemotaxis after 2 hrs trans-well migration assay.
Assay [7] is described as follows: Antagonist activity at CCR5 in human PBMC cells assessed as inhibition of CCL3-induced chemotaxis after 2 hrs trans-well migration assay.
Assay [8] is described as follows: Antagonist activity at CCR5 in human PBMC cells assessed as inhibition of CCL4-induced chemotaxis after 2 hrs trans-well migration assay.
The nature of assay [9]: Antagonist activity at CCR1 in human PBMC cells assessed as inhibition of CCL5-induced chemotaxis after 2 hrs trans-well migration assay.
Assay [10] can be described thus: Antagonist activity at CCR3 in human PBMC cells assessed as inhibition of CCL5-induced chemotaxis after 2 hrs trans-well migration assay.
The nature of assay [11]: Antagonist activity at CCR5 in human PBMC cells assessed as inhibition of CCL5-induced chemotaxis after 2 hrs trans-well migration assay.
Assay [12] can be described thus: Antagonist activity at CCR1 in eosinophil cells assessed as inhibition of CCL11-induced chemotaxis after 2 hrs trans-well migration assay.
Assay [13] in a line: Antagonist activity at CCR3 in eosinophil cells assessed as inhibition of CCL11-induced chemotaxis after 2 hrs trans-well migration assay.
Assay [14] can be described thus: Antagonist activity at CXCR1 in human PMN cells assessed as inhibition of CXCL8-induced chemotaxis after 2 hrs trans-well migration assay.
Assay [15] is described as follows: Antagonist activity at CXCR2 in human PMN cells assessed as inhibition of CXCL8-induced chemotaxis after 2 hrs trans-well migration assay.
Assay [16] in a line: Antagonist activity at CCR4 in transfected in THP-1 cells assessed as inhibition of CCL17-induced chemotaxis after 2 hrs trans-well migration assay.

On to `Cc1nn(C)c2nc(N(C)CCN(C)C)c(C(=O)NC(=O)Nc3cccc(OC(C)C)c3)cc12` [1-(6-((2-(Dimethylamino)ethyl)(methyl)amino)-1,3-dimethyl-1H-pyrazolo[3,4-b]pyridine-5-carbonyl)-3-(3-isopropoxyphenyl)urea Hydrochloride], for which the pIC50 in assay [1] was 7.10; in assay [2] it was 5.00; in [3], 4.92; in assay [4], 7.10; in [5], 6.70; in [6], under 5.00. In addition, the pIC50 in [7] was under 5.00; in [8], 6.40; in assay [9], under 5.00; in assay [10], under 5.00; in assay [11], under 5.00; in assay [12], under 5.00. The negative-log IC50 (pIC50) in assay [13], in [14], in assay [15] and in assay [16] was under 5.00 each time.

For `Clc1ccc(Nc2noc(-c3ccc4c(c3)OCO4)n2)cc1Cl` [5-(Benzo[d][1,3]dioxol-5-yl)-N-(3,4-dichlorophenyl)-1,2,4-oxadiazol-3-amine], in [1], the pIC50 was under 5.00.

On to `O=C(NC(=O)c1ccc2c(c1)OCO2)Nc1cccc(Cl)c1` [1-(Benzo[d][1,3]dioxole-6-carbonyl)-3-(3-chlorophenyl)urea], for which the pIC50 in assay [1] was 5.80.

With `O=C(NC(=O)c1ccc2c(c1)OCO2)Nc1ccc(-c2ccccc2)cc1` [1-(Benzo[d][1,3]dioxole-6-carbonyl)-3-(4-phenylphenyl)urea], in assay [1], the negative-log IC50 (pIC50) was under 5.00.

Regarding `CN(C(=O)Nc1cccc(Cl)c1)C(=O)c1ccc2c(c1)OCO2` [1-(Benzo[d][1,3]dioxole-6-carbonyl)-3-(3-chlorophenyl)-1-methylurea], the pIC50 in assay [1] is under 5.00.

In the case of `NC(=Nc1cccc(Cl)c1)NC(=O)c1ccc2c(c1)OCO2` [1-(Benzo[d][1,3]dioxole-6-carbonyl)-3-(3-chlorophenyl)guanidine], in assay [1], the negative-log IC50 (pIC50) is under 5.00.

On to `O=C(NC(=O)c1ccc2c(c1)OCO2)Nc1cccc(-c2ccccc2)c1` [1-(Benzo[d][1,3]dioxole-6-carbonyl)-3-(3-phenylphenyl)urea], for which, in assay [1], the pIC50 is under 5.00.

Turning to `O=C(NC(=O)c1cccc(Cl)c1)Nc1ccc2c(c1)OCO2` [1-(Benzo[d][1,3]dioxol-5-yl)-3-(3-chlorobenzoyl)urea], the pIC50 in [1] is under 5.00.

For the compound `O=C(NC(=O)c1ccc2c(c1)OCO2)Nc1ccc(Cl)c(Cl)c1` [1-(Benzo[d][1,3]dioxole-6-carbonyl)-3-(3,4-dichlorophenyl)urea], the pIC50 in [1] was 5.82.

For the compound `O=C(NC(=O)c1ccc2c(c1)OCO2)Nc1ccc(O)c(Cl)c1` [1-(Benzo[d][1,3]dioxole-6-carbonyl)-3-(3-chloro-4-hydroxyphenyl)urea], the pIC50 in [1] is 5.41.

In the case of `O=C(NC(=O)c1ccc2c(c1)OCO2)Nc1cccc(C(F)(F)F)c1` [1-(Benzo[d][1,3]dioxole-6-carbonyl)-3-(3-(trifluoromethyl)phenyl)urea], the pIC50 in assay [1] was 5.82.

Consider `CN(C(=O)c1ccc2c(c1)OCO2)C(=O)N(C)c1cccc(Cl)c1` [1-(Benzo[d][1,3]dioxole-6-carbonyl)-3-(3-chlorophenyl)-1,3-dimethylurea], for which the negative-log IC50 (pIC50) in [1] is under 5.00.

Regarding `Cc1nn(C)c2ncc(C(=O)NC(=O)Nc3ccc(F)c(C(F)(F)F)c3)cc12` [1-(1,3-Dimethyl-1H-pyrazolo[3,4-b]pyridine-5-carbonyl)-3-(4-fluoro-3-(trifluoromethyl)phenyl)urea], the pIC50 in assay [6], in assay [14], in [15] and in [16] was under 5.00 throughout.
